This is an account of results in US12583889B2, “Cell penetrating peptides” (Oxford University Innovation Limited, priority 2017, dated 2026).

Marks after values point to notes of the source that are not given here.

The test system of test [1] is SMN2 exon 7 inclusion in GM03813 SMA patient fibroblasts. In words: Cell screening of peptide-PMO conjugates for SMN2 exon 7 inclusion in human SMA patient fibroblast cell culture. In kind it is cell-based. Conditions: for cell activity (SMN2 exon 7 inclusion) relative to peptide 14: first screen, FIG. 4, qPCR; for cell activity (SMN2 exon 7 inclusion) relative to peptide 14 / cell activity (SMN2 exon 7 inclusion): 667 nM and 2 μM; for cell activity (SMN2 exon 7 inclusion): second screen, FIG. 5, qPCR. How it is done:
In order to generate further peptide candidates containing a glycosylated Serine residue for in vivo evaluation, the inventors synthesized a range of similarly glycosylated peptides, conjugated them to the same PMO therapeutic and screened the resultant P-PMO conjugates in human SMA patient fibroblast cell culture, which assesses their ability to enter cell nuclei to give exon inclusion.
GM03813 (Coriell Institute) derived from SMA type I patient fibroblast were seeded out at 2500 cells/well in 100 μl Dulbecco's modified Eagle's medium (DMEM) with GlutaMAX and 5% fetal bovine serum (FBS) (Life Technologies, Inc.) in 96 well plates, and incubated for 16 h in a cell culture incubator (37° C., 5% CO2, 100% rel. humidity). On the next day cells were then treated with 10 μl P-PMO at different concentrations (in water) in duplicate for 24 hours. After removal of the supernatant, cells were washed once with PBS-buffer and were lysed in lysis buffer (10 mM Tris, 3 mM MgCl2, 1 mM CaCl2), 1% Triton X-100, 200 u/ml DNase I and 200 u/ml Proteinase K) for 10 min. Afterwards the lysate were transferred into a 96-well plate (Eppendorf twintec) and incubated at 75° C. for 15 min and subsequently cooled to 4° C. and used immediately. The mRNA levels of SMN2 FL, SMN2 Δ7 and GAPDH were quantified using Taqman-based qRT-PCR (Superscript® III Platinium® One Step qRT-PCR, Thermo Fisher) and SMN2 specific Primers and probes (purchased from IDT Integrated DNA Technologies). (19) SMN2 FL and Δ7 mRNAs were normalized to GAPDH. […]
Background: Quantitative PCR measures a nucleic acid by following its amplification.

Test [2] deals with human SMN2-gene. The test is described as follows: Full-length SMN2 transcript qPCR in tissues of adult SMA mice after intravenous peptide-PMO conjugate. The conditions noted are these: for full-length SMN2 transcripts, mean expression level, Brainstem / full-length SMN2 transcripts, mean expression level, Cerebellum / full-length SMN2 transcripts, mean expression level, Cortex / full-length SMN2 transcripts, mean expression level, Liver / full-length SMN2 transcripts, mean expression level, Gastroc / full-length SMN2 transcripts, mean expression level, Quad / full-length SMN2 transcripts, mean expression level, Cervical / full-length SMN2 transcripts, mean expression level, Lumbar / full-length SMN2 transcripts, mean expression level, Thoracic / full-length SMN2 transcripts, mean expression level, TA: adult SMA mice, 2x15 mg/kg IV approx. 48 hours apart, tissue 7 days post final administration, normalised to saline treated controls; for full-length SMN2 transcripts, mean expression level, Brainstem / full-length SMN2 transcripts, mean expression level, Cerebellum / full-length SMN2 transcripts, mean expression level, Cortex: Central Nervous System; for full-length SMN2 transcripts, mean expression level, Liver: Off Target; for full-length SMN2 transcripts, mean expression level, Gastroc: Skeletal Muscle (gastrocnemius); for full-length SMN2 transcripts, mean expression level, Quad: Skeletal Muscle (quadriceps); for full-length SMN2 transcripts, mean expression level, Cervical / full-length SMN2 transcripts, mean expression level, Lumbar / full-length SMN2 transcripts, mean expression level, Thoracic: spinal cord; for full-length SMN2 transcripts, mean expression level, TA: Skeletal Muscle (tibialis anterior). In kind it is in vivo. The text has this:
Smn1tm1Hung/wt; […]; […] Tissues were harvested one week post administration. […] Statistical significance determined by Student'[…]≤0.00005. […] ID NO.151), Exons 7-8 Rev: [NT] ID NO.152). […] [NT] ID NO.154). […] PolJ Forward: [NT] ID NO.155); PolJ Reverse: [NT]

In the case of “Ac-RBRRBRRBR S*FL RBRBRBR-G [Peptide 18]”, the “cell activity (SMN2 exon 7 inclusion) relative to peptide 14” value in test [1] was “no significant effect on cell activity”.

With Ac-RXRRBRRS*S*S* RBRXR-G [Peptide 68], in test [1], the “cell activity (SMN2 exon 7 inclusion)” value is “retained good activity in cells”.

Turning to Ac-RXRRBRRXRS*FRXRBRXR-G [Peptide 43], the “cell activity (SMN2 exon 7 inclusion) relative to peptide 14” value in test [1] is given as “only a slightly reduced activity”.

Take Ac-RBRRBRRBRS*FLRBRBRR-G [Peptide 33]: the “cell activity (SMN2 exon 7 inclusion) relative to peptide 14” value in test [1] is “without a large loss in cell activity”.

On to Ac-RXRRBRRFLRBRXR-B [Peptide 6], for which, in test [2], the “full-length SMN2 transcripts, mean expression level, Brainstem” value (“full-length SMN2 transcripts … Brainstem” below) is reported as 1.38**; the “full-length SMN2 transcripts, mean expression level, Cerebellum” value (“full-length SMN2 transcripts … Cerebellum” for short) turned out to be 1.05; the “full-length SMN2 transcripts, mean expression level, Cortex” value (shortened to “full-length SMN2 transcripts … Cortex”) is reported as 1.13; the “full-length SMN2 transcripts, mean expression level, Liver” value (“full-length SMN2 transcripts … Liver” below) was 2.78. Besides, in test [2], the “full-length SMN2 transcripts, mean expression level, Gastroc” value (“full-length SMN2 transcripts … Gastroc” for short) is listed as 3.22****; the “full-length SMN2 transcripts, mean expression level, Quad” value (“full-length SMN2 transcripts … Quad” below) is reported as 2.89***; the “full-length SMN2 transcripts, mean expression level, Cervical” value (“full-length SMN2 transcripts … Cervical” below) is 0.88**; the “full-length SMN2 transcripts, mean expression level, Lumbar” value (“full-length SMN2 transcripts … Lumbar” below) is given as 1.23*. In test [2], the “full-length SMN2 transcripts, mean expression level, Thoracic” value (from here on “full-length SMN2 transcripts … Thoracic”) is 1.37*.

On to Ac-RXRRBRFQILYRBRXR-B [Peptide 7], for which, in test [2], the “full-length SMN2 transcripts … Brainstem” value came out at 1.11; the “full-length SMN2 transcripts … Cerebellum” value is listed as 0.97; the “full-length SMN2 transcripts … Cortex” value was 1.01; the “full-length SMN2 transcripts … Liver” value amounted to 3.19. Moreover, in test [2], the “full-length SMN2 transcripts … Gastroc” value was 2.92****; the “full-length SMN2 transcripts … Quad” value is listed as 2.80****; the “full-length SMN2 transcripts, mean expression level, TA” value (“full-length SMN2 transcripts … TA” for short) is 3.34****; the “full-length SMN2 transcripts … Cervical” value was 1.26. Also, in test [2], the “full-length SMN2 transcripts … Lumbar” value was 0.97 and the “full-length SMN2 transcripts … Thoracic” value is given as 1.33.

Consider Ac-RXRRBRRXRS*RXRBRXR-G [Peptide 44], for which, in test [1], the “cell activity (SMN2 exon 7 inclusion) relative to peptide 14” value was “no significant effect on cell activity”.

Take Ac-RBRRBRRBRS*FLRBRRR-G [Peptide 34]: the “cell activity (SMN2 exon 7 inclusion) relative to peptide 14” value in test [1] was “without a large loss in cell activity”.

In the case of Ac-RXRRBRRQFLRBRXR-B [Peptide 5], in test [2], the “full-length SMN2 transcripts … Brainstem” value is 1.22; the “full-length SMN2 transcripts … Cerebellum” value came out at 1; the “full-length SMN2 transcripts … Cortex” value is 1.11; the “full-length SMN2 transcripts … Liver” value is recorded as 2.73. Also, in test [2], the “full-length SMN2 transcripts … Gastroc” value is 2.49****; the “full-length SMN2 transcripts … Quad” value is listed as 2.46****; the “full-length SMN2 transcripts … TA” value is reported as 2.80****; the “full-length SMN2 transcripts … Cervical” value was 1.24*. Besides, in test [2], the “full-length SMN2 transcripts … Lumbar” value is 1.25* and the “full-length SMN2 transcripts … Thoracic” value is 1.23.

Consider Ac-RXRRBRRFQILYRBRXR-B [Peptide 3], for which, in test [2], the “full-length SMN2 transcripts … Brainstem” value came out at 0.86; the “full-length SMN2 transcripts … Cerebellum” value is on record as 1.025; the “full-length SMN2 transcripts … Cortex” value was 0.93; the “full-length SMN2 transcripts … Liver” value was 4.57. Moreover, in test [2], the “full-length SMN2 transcripts … Gastroc” value is 3.4; the “full-length SMN2 transcripts … Quad” value is given as 3.35****; the “full-length SMN2 transcripts … TA” value is given as 3.95***; the “full-length SMN2 transcripts … Cervical” value is reported as 0.92. In test [2], the “full-length SMN2 transcripts … Lumbar” value amounted to 1.1 and the “full-length SMN2 transcripts … Thoracic” value stood at 1.

On to Ac-RXRRBRRXRQFLRXRBRXR-B [Peptide 2], for which, in test [2], the “full-length SMN2 transcripts … Brainstem” value was 1.36***; the “full-length SMN2 transcripts … Cerebellum” value is on record as 1.15*; the “full-length SMN2 transcripts … Cortex” value is 1.16*; the “full-length SMN2 transcripts … Liver” value is listed as 2.91. In addition, in test [2], the “full-length SMN2 transcripts … Gastroc” value is 2.98****; the “full-length SMN2 transcripts … Quad” value is given as 2.52****; the “full-length SMN2 transcripts … TA” value was 3.45****; the “full-length SMN2 transcripts … Cervical” value is on record as 1.78**. In test [2], the “full-length SMN2 transcripts … Lumbar” value is given as 1.48** and the “full-length SMN2 transcripts … Thoracic” value is listed as 1.49*.

For Ac-RBRRRRRS*FLRBRBRBR-G [Peptide 37], the “cell activity (SMN2 exon 7 inclusion) relative to peptide 14” value in test [1] is on record as “without a large loss in cell activity”.

With “Ac-RXRRBRRXR S*FLRXRBRXR-BB [Peptide 14]”, the “cell penetration in several compartments of the central nervous system and the skeletal muscle compared with currently available peptides 1-7” value in test [2] (Table 3 data) is given as “increased”. For the same substance, in test [2], the “full-length SMN2 transcripts … Brainstem” value is 1.97***; the “full-length SMN2 transcripts … Cerebellum” value was found to be 1.26; the “full-length SMN2 transcripts … Cortex” value is given as 1.50*; the “full-length SMN2 transcripts … Liver” value is on record as 3.45. Besides, in test [2], the “full-length SMN2 transcripts … Gastroc” value is reported as 2.82****; the “full-length SMN2 transcripts … Quad” value is 2.45***; the “full-length SMN2 transcripts … TA” value is reported as 3.24****; the “full-length SMN2 transcripts … Cervical” value is reported as 1.23**. For the same substance, in test [2], the “full-length SMN2 transcripts … Lumbar” value was found to be 2.23 and the “full-length SMN2 transcripts … Thoracic” value was 2.38**. In addition, the “increase in cell penetration / exon inclusion compared with the currently available peptide conjugated to the same antisense oligonucleotide” value in test [2] (in vivo, Table 3 data, peptide 17 versus peptide 6, peptide 14 versus peptide 2) is “up to 59.7%”.

Take Ac-RXRRBRRYQFLIRBRXR-B [Peptide 4]: in test [2], the “full-length SMN2 transcripts … Brainstem” value was determined as 0.98; the “full-length SMN2 transcripts … Cerebellum” value stood at 0.96; the “full-length SMN2 transcripts … Cortex” value is 1.1; the “full-length SMN2 transcripts … Liver” value is 3.26. For the same substance, in test [2], the “full-length SMN2 transcripts … Gastroc” value is listed as 3.64****; the “full-length SMN2 transcripts … Quad” value is 2.70****; the “full-length SMN2 transcripts … TA” value is on record as 4.23****; the “full-length SMN2 transcripts … Cervical” value is recorded as 1.14*. Besides, in test [2], the “full-length SMN2 transcripts … Lumbar” value is on record as 1 and the “full-length SMN2 transcripts … Thoracic” value is recorded as 1.12.

In the case of Ac-RRBRRBRS*FLRBRBRBR-G [Peptide 24], the “cell activity (SMN2 exon 7 inclusion) relative to peptide 14” value in test [1] was “less active than the first peptide 14”.

Ac-RXRXRS*RXRXR-G [Peptide 71]: in test [1], the “cell activity (SMN2 exon 7 inclusion)” value was “remarkably good activity”.

As to Ac-RRBRS*FLRBRBRBR-G [Peptide 26], the “cell activity (SMN2 exon 7 inclusion) relative to peptide 14” value in test [1] is “slightly less active only”.

In the case of Ac-RBRRBRRRS*FLRBRBRBR-G [Peptide 36], the “cell activity (SMN2 exon 7 inclusion) relative to peptide 14” value in test [1] is listed as “without a large loss in cell activity”.

On to Ac-RXRRBRRS*S*RBRXR-G [Peptide 67], for which the “cell activity (SMN2 exon 7 inclusion)” value in test [1] is reported as “retained good activity in cells”.

For the substance Ac-RXRRBRRXRYQFLIRXRBRXR-B [Peptide 1], in test [2], the “full-length SMN2 transcripts … Brainstem” value is listed as 1.48***; the “full-length SMN2 transcripts … Cerebellum” value is 1.25*; the “full-length SMN2 transcripts … Cortex” value is on record as 1.29**; the “full-length SMN2 transcripts … Liver” value was 2.81. For the same substance, in test [2], the “full-length SMN2 transcripts … Gastroc” value is reported as 3.03***; the “full-length SMN2 transcripts … Quad” value was 3.37***; the “full-length SMN2 transcripts … TA” value is 3.30***; the “full-length SMN2 transcripts … Cervical” value is 1.50***. For the same substance, in test [2], the “full-length SMN2 transcripts … Lumbar” value is 1.28*** and the “full-length SMN2 transcripts … Thoracic” value is 1.45***.

In the case of Ac-RBRRBRRBRS*FLRBRBR-G [Peptide 29], the “cell activity (SMN2 exon 7 inclusion) relative to peptide 14” value in test [1] is “less active than the first peptide 14”.

On to Ac-RXRRS*RRBRBRXR-G [Peptide 58], for which the “cell activity (SMN2 exon 7 inclusion)” value in test [1] is listed as “no significant alteration in activity levels”.

Ac-RS*RRBRRBRBRXR-G [Peptide 59]: the “cell activity (SMN2 exon 7 inclusion)” value in test [1] is on record as “no significant alteration in activity levels”.

Regarding Ac-RXRRBRRFS^1*RBRXR-B [Peptide 74], the “cell activity (SMN2 exon 7 inclusion) relative to S* peptide” value in test [1] (third screen, FIG. 6, 4 μM, 2 μM, 1 μM, 500 nM, 250 nM) is on record as “Improved activity”.
